Test results from patent publication US12546786B2, “Circulatory biomarkers for placental or fetal health” (THE UNIVERSITY OF MELBOURNE, priority 2018, dated 2026).

Test system: HTR8 cells
Experiment: HTR8 placental cell line proliferation monitored in real time using the xCELLigence system
Format: cell-based
Conditions: 5 or 10 uM of SRI31215 administered to HTR8 placental cell line
Method: FIGS. 3A through P are graphical representations showing observational studies to determine whether placental SPINT1 is altered in cases of human SGA. To do this, a cohort of placentas was selected from either control, preeclamptic or SGA pregnancies. […] No change in SPINT1 mRNA expression was detected in placentas collected from patients who delivered at >34 weeks gestation (B). SPINT1 protein expression was assessed using Western blot and commercially available antibodies (C,D). […] Growth restriction is often associated with placental insufficiency and poor oxygen delivery to the placenta, resulting in placental hypoxia. The inventors assessed whether exposure of primary placental cells (cytotrophoblast cells isolated from term human placentas) to low oxygen conditions (1% Oxygen for hypoxia vs 8% oxygen for normoxia) would alter SPINT1 mRNA and protein expression and protein secretion. […] Given previous evidence in mice that a lack of SPINT1 may be associated with a poorly developed placenta, the inventors next set out to assess whether silencing SPINT1 using siRNA knockdown in the HTR8 placental cell line would affect cellular proliferation assessed in real time using the xCELLigence system. […] To do this, a commercially available SPINT1 mimetic called SRI31215 (Glixx laboratories) was administered to HTR8 cells and their proliferation monitored using the xCELLigence system. […]

CC1CN(CC2CCN(Cc3ccccc3)CC2)C(=O)N(c2cccc(C(=N)N)c2)C1.O=C(O)C(F)(F)F (stereo not shown) [SRI31215]
HTR8 proliferation: enhanced HTR8 proliferation
